# Assay results reported in ChEMBL document CHEMBL5321293, “Discovery of ERD-3111 as a Potent and Orally Efficacious Estrogen Receptor PROTAC Degrader with Strong Antitumor Activity” (J Med Chem, 2023).
# What was measured:
# [1] = molecular target: T1, Protein cereblon/Estrogen receptor (Homo sapiens, UniProt P03372+Q96SW2); experiment: Protac activity at human ERalpha in human MCF7 cells assessed as protein degradation incubated for 12 hrs by ICW blot assay; assay type: cell-based
# Target sequence in this assay (P03372 whole entry): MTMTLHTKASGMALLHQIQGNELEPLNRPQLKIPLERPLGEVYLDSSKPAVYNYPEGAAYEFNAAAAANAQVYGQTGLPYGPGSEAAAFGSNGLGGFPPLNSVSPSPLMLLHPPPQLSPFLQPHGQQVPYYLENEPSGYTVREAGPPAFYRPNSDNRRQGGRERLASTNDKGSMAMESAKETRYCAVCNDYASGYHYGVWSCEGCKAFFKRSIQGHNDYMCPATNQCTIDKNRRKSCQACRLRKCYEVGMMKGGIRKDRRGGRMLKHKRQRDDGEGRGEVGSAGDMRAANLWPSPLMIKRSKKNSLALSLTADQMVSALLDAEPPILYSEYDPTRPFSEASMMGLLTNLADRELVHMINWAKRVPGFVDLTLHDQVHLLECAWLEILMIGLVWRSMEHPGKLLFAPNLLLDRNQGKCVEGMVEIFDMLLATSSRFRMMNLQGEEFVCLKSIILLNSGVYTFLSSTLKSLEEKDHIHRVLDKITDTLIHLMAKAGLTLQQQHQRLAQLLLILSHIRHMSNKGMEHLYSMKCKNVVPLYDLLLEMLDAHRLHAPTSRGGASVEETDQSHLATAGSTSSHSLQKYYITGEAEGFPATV
# Target sequence in this assay (Q96SW2 whole entry): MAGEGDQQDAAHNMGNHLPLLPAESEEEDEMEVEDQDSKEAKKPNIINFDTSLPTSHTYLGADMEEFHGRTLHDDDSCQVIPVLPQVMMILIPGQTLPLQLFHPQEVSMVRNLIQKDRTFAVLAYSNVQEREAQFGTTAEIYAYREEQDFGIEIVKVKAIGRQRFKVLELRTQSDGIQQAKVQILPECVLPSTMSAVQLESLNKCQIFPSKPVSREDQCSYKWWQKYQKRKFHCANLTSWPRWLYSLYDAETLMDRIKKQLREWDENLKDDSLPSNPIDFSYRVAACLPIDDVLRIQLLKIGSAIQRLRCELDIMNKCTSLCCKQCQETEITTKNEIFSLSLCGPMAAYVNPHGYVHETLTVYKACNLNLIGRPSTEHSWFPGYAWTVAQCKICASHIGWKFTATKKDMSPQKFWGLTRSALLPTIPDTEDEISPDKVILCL
# [2] = molecular target: T1, Protein cereblon/Estrogen receptor; experiment: Protac activity at human ERalpha in human MCF7 cells assessed as induction of ERalpha degradation by measuring maximum efficacy at 1 uM incubated for 12 hrs by ICW blot assay relative to control; assay type: cell-based
# Target sequence in this assay (P03372 whole entry, looked up): as the sequence (P03372 whole entry) above
# Target sequence in this assay (Q96SW2 whole entry, looked up): as the sequence (Q96SW2 whole entry) above
Structure (SMILES),DC50 [1],Emax [2]
O=C1CCC(N2C(=O)c3cc4c(cc3C2=O)CN(CCCCC2CCN(c3ccc([C@@H]5c6ccc(O)cc6CC[C@@H]5c5ccccc5)cc3)CC2)C4)C(=O)N1 (stereo partly specified),236 nM,67%
O=C1CCC(N2C(=O)c3cc4c(cc3C2=O)CN(C2CCN(CC3CN(c5ccc([C@@H]6c7ccc(O)cc7CC[C@@H]6c6ccccc6)cc5)C3)CC2)C4)C(=O)N1 (stereo partly specified),295 nM,57%
O=C1CCC(N2C(=O)c3cc4c(cc3C2=O)CN(C(=O)CN2CCC3(CC2)CCN(c2ccc([C@@H]5c6ccc(O)cc6CC[C@@H]5c5ccccc5)cc2)CC3)C4)C(=O)N1 (stereo partly specified),> 1000 nM,16%
O=C1CCC(N2C(=O)c3cc4c(cc3C2=O)CN(CC(=O)N2CCCC3(CCN(c5ccc([C@@H]6c7ccc(O)cc7CC[C@@H]6c6ccccc6)cc5)CC3)C2)C4)C(=O)N1 (stereo partly specified),393 nM,58%
O=C1CCC(N2C(=O)c3cc4c(cc3C2=O)CN(C2CCN(c3ccc([C@@H]5c6ccc(O)cc6CC[C@@H]5c5ccccc5)cc3)CC2)C4)C(=O)N1 (stereo partly specified),> 1000 nM,32%
O=C1CCC(N2C(=O)c3cc4c(cc3C2=O)CN(C2CN(CC3CCN(c5ccc([C@@H]6c7ccc(O)cc7CC[C@@H]6c6ccccc6)cc5)CC3)C2)C4)C(=O)N1 (stereo partly specified),989 nM,50%
O=C1CCC(N2C(=O)c3cc4c(cc3C2=O)CN(C(=O)C2CCN(CC3CN(c5ccc([C@@H]6c7ccc(O)cc7CC[C@@H]6c6ccccc6)cc5)C3)CC2)C4)C(=O)N1 (stereo partly specified),> 1000 nM,40%

# These reach a lower DC50 [1]. Values come first.
DC50 [1],Emax [2],Structure (SMILES)
2.8 nM,71%,O=C1CCC(N2C(=O)c3cc4c(cc3C2=O)CN(CC(=O)N2CC3(CCN(c5ccc([C@@H]6c7ccc(O)cc7CC[C@@H]6c6ccccc6)cc5)CC3)C2)C4)C(=O)N1 (stereo partly specified)
6 nM,84%,O=C1CCC(N2C(=O)c3cc4c(cc3C2=O)CN(CC2CN(C(=O)C3CCN(c5ccc([C@@H]6c7ccc(O)cc7CC[C@@H]6c6ccccc6)cc5)CC3)C2)C4)C(=O)N1 (stereo partly specified)
11 nM,65%,O=C1CCC(N2C(=O)c3cc4c(cc3C2=O)CN(CC(=O)N2CC3(C2)CN(c2ccc([C@@H]5c6ccc(O)cc6CC[C@@H]5c5ccccc5)cc2)C3)C4)C(=O)N1 (stereo partly specified)
2 nM,88%,C[C@@H]1Cc2c(ccc3[nH]ncc23)[C@@H](c2c(F)cc(N3CCC4(CCN(C(=O)CN5Cc6cc7c(cc6C5)C(=O)N(C5CCC(=O)NC5=O)C7=O)CC4)CC3)cc2F)N1CC(F)(F)F (stereo partly specified)
18 nM,58%,"O=C1CCC(N2C(=O)c3cc4c(cc3C2=O)CN(CC(=O)N2CCC3(CC2)CCN(c2ccc([C@H]5c6ccc(O)cc6CC[C@H]5c5ccccc5)cc2)C3)C4)C(=O)N1 (single isomer, unassigned)"
9.7 nM,63%,O=C1CCC(N2C(=O)c3cc4c(cc3C2=O)CN(C(=O)C2CCN(CC3CCN(c5ccc([C@@H]6c7ccc(O)cc7CC[C@@H]6c6ccccc6)cc5)CC3)CC2)C4)C(=O)N1 (stereo partly specified)
13 nM,76%,O=C1CCC(N2C(=O)c3cc4c(cc3C2=O)CN(CC2CCN(C(=O)C3CCN(c5ccc([C@@H]6c7ccc(O)cc7CC[C@@H]6c6ccccc6)cc5)CC3)CC2)C4)C(=O)N1 (stereo partly specified)
21 nM,59%,O=C1CCC(N2C(=O)c3cc4c(cc3C2=O)CN(CC2CN(CC3CCN(c5ccc([C@@H]6c7ccc(O)cc7CC[C@@H]6c6ccccc6)cc5)CC3)C2)C4)C(=O)N1 (stereo partly specified)
1.8 nM,68%,O=C1CCC(N2C(=O)c3cc4c(cc3C2=O)CN(CC(=O)N2CCC3(CC2)CN(c2ccc([C@@H]5c6ccc(O)cc6CC[C@@H]5c5ccccc5)cc2)C3)C4)C(=O)N1 (stereo partly specified)
19 nM,64%,O=C1CCC(N2C(=O)c3cc4c(cc3C2=O)CN(CC2CCN(CC3CN(c5ccc([C@@H]6c7ccc(O)cc7CC[C@@H]6c6ccccc6)cc5)C3)CC2)C4)C(=O)N1 (stereo partly specified)
31 nM,106%,O=C1CCC(N2C(=O)c3cc4c(cc3C2=O)CN(CCCCCC2CCN(c3ccc([C@@H]5c6ccc(O)cc6CC[C@@H]5c5ccccc5)cc3)CC2)C4)C(=O)N1 (stereo partly specified)
